Data: patent US6274715A, “Tricyclic erythromycin derivatives” (priority 1997, dated 2001)
Values after ≈ are worked out from the molar mass of the structure shown.

Assays:
Assay type in all cases: cell-based
ESCHERICHIA COLI SS = assay: In vitro antibacterial activity, MIC, BHI agar dilution; conditions: E. coli SS
STR[…] 508 = assay: as above
Protocol: (§1) Representative compounds of the present invention were assayed in vitro for antibacterial activity as follows: Twelve petri dishes containing successive aqueous dilutions of the test compound mixed with 10 mL of sterilized Brain Heart Infusion (BHI) agar (Difco 0418-01-5) were prepared. Each plate was inoculated with 1:100 (or 1:10 for slow-growing strains, such as Micrococcus and Streptococcus) dilutions of up to 32 different microorganisms, using a Steers replicator block. The inoculated plates were incubated at 35-37° C. for 20 to 24 hours. In addition, a control plate, using BHI agar containing no test compound, was prepared and incubated at the beginning and end of each test.
(§2) An additional plate containing a compound having known susceptibility patterns for the organisms being tested and belonging to the same antibiotic class as the test compound was also prepared and incubated as a further control, as well as to provide test-to-test comparability. Erythromycin A was used for this purpose.
(§3) After incubation, each plate was visually inspected. The minimum inhibitory concentration (MIC) was defmed as the lowest concentration of drug yielding no growth, a slight haze, or sparsely isolated colonies on the inoculum spot as compared to the growth control.

M[…] ATCC 9341 = assay: as above; conditions: M. luteus ATCC 9341, unit assumed
Protocol: as §1, §2, §3

M[…] ATCC 4698 = assay: as above; conditions: M. luteus ATCC 4698, unit assumed
Protocol: as §1, §2, §3

EN[…] ATCC 8043 = assay: as above; conditions: E. faecium ATCC 8043, unit assumed
Protocol: as §1, §2, §3

[1] = system: PSEUDOMONAS AERUGINOSA DPHD-5263; assay: as above; conditions: P. aeruginosa DPHD-5263, unit assumed
[2] = system: PROVIDENCIA STUARTII CMX 640; conditions: P. stuartii CMX 640; BHI agar; unit assumed
[3] = system: STREPTOCOCCUS PYOGENES 930; assay: In vitro antibacterial activity, MIC, BHI agar dilution
PSEUDOMONAS CEPACIA 296I = assay: as above; conditions: P. cepacia 296I, unit assumed
[4] = system: STREPTOCOCCUS PYOGENES PIU 2548; assay: as above; conditions: S. pyogenes PIU 2548, unit assumed
ESCHERICHIA COLI KNK 437 = conditions: E. coli KNK 437; BHI agar; unit assumed
[5] = system: PSEUDOMONAS AERUGINOSA K799/WT; assay: In vitro antibacterial activity, MIC, BHI agar dilution; conditions: P. aeruginosa K799/WT, unit assumed
CANDIDA ALBICANS CCH 442 = assay: as above
[6] = system: STAPHYLOCOCCUS AUREUS 1775; assay: as above; conditions: S. aureus 1775, unit assumed
ESCHERICHIA COLI DC-2 = assay: as above; conditions: E. coli DC-2, unit assumed
ESCHERICHIA COLI JUHL = conditions: E. coli JUHL; BHI agar; unit assumed
[7] = system: ENTEROBACTER AEROGENES ATCC 13048; assay: In vitro antibacterial activity, MIC, BHI agar dilution; conditions: E. aerogenes ATCC 13048, unit assumed
[8] = system: STAPHYLOCOCCUS AUREUS A-5278; assay: as above; conditions: S. aureus A-5278, unit assumed
[9] = system: PSEUDOMONAS AERUGINOSA DPHD-2862; assay: as above; conditions: P. aeruginosa DPHD-2862, unit assumed
[10] = system: PSEUDOMONAS AERUGINOSA 5007; assay: as above; conditions: P. aeruginosa 5007, unit assumed
[11] = system: MYCOBACTERIUM SMEGMATIS ATCC 114; assay: as above; conditions: M. smegmatis ATCC 114, unit assumed
[12] = system: STAPHYLOCOCCUS EPIDERMIDIS 3519; conditions: S. epidermidis 3519; BHI agar; unit assumed
[13] = system: STREPTOCOCCUS PYOGENES EES61; assay: In vitro antibacterial activity, MIC, BHI agar dilution
[14] = system: STAPHYLOCOCCUS AUREUS CMX 553; assay: as above; conditions: S. aureus CMX 553, unit assumed
[15] = system: KLEBSIELLA PNEUMONIAE ATCC 8045; assay: as above; conditions: K. pneumoniae ATCC 8045, unit assumed
[16] = system: PSEUDOMONAS AERUGINOSA BMH10; assay: as above; conditions: P. aeruginosa BMH10, unit assumed
ESCHERICHIA COLI H560 = assay: as above; conditions: E. coli H560, unit assumed
[17] = system: STAPHYLOCOCCUS AUREUS CMX 642A; assay: as above; conditions: S. aureus CMX 642A, unit assumed
[18] = system: STREPTOCOCCUS BOVIS A-5169; assay: as above; conditions: S. bovis A-5169, unit assumed
[19] = system: PSEUDOMONAS AERUGINOSA K799/61; assay: as above; conditions: P. aeruginosa K799/61, listed as Ex 148, unit assumed

CCC1OC(=O)C(C)C(=O)C(C)C(OC2OC(C)CC(N(C)C)C2O)C(C)(OC)CC(C)C2=NCC(C)(CN(C)C)N3C(=O)OC1(C)C3C2C (stereo not shown) [Example 136]
MIC (ESCHERICHIA COLI SS; unit assumed): 0.78 µg/mL (≈ 1.1 µM)
MIC (STR[…] 508; S. agalactiae CMX 508, unit assumed): 0.1 µg/mL (≈ 0.141 µM)
MIC (M[…] ATCC 9341): 0.1 µg/mL (≈ 0.141 µM)
MIC (M[…] ATCC 4698): 0.78 µg/mL (≈ 1.1 µM)
MIC (EN[…] ATCC 8043): 0.2 µg/mL (≈ 0.282 µM)
MIC [1]: > 100 µg/mL
MIC [2]: > 100 µg/mL
MIC ([3]; S. pyogenes 930, unit assumed): > 100 µg/mL
MIC (PSEUDOMONAS CEPACIA 296I): > 100 µg/mL
MIC [4]: 1.56 µg/mL (≈ 2.2 µM)
MIC (ESCHERICHIA COLI KNK 437): > 100 µg/mL
MIC [5]: > 100 µg/mL
MIC (CANDIDA ALBICANS CCH 442; C. albicans CCH 442, unit assumed): > 100 µg/mL
MIC [6]: > 100 µg/mL
MIC (ESCHERICHIA COLI DC-2): > 100 µg/mL
MIC (ESCHERICHIA COLI JUHL): 100 µg/mL (≈ 141 µM)
MIC [7]: > 100 µg/mL
MIC [8]: > 100 µg/mL
MIC [9]: > 100 µg/mL
MIC [10]: > 100 µg/mL
MIC [11]: 6.2 µg/mL (≈ 8.75 µM)
MIC [12]: 1.56 µg/mL (≈ 2.2 µM)
MIC ([13]; S. pyogenes EES61, unit assumed): 0.1 µg/mL (≈ 0.141 µM)
MIC [14]: 1.56 µg/mL (≈ 2.2 µM)
MIC [15]: > 100 µg/mL
MIC [16]: > 100 µg/mL
MIC (ESCHERICHIA COLI H560): 100 µg/mL (≈ 141 µM)
MIC [17]: 1.56 µg/mL (≈ 2.2 µM)
MIC [18]: 0.02 µg/mL (≈ 0.0282 µM)

CC[C@H]1OC(=O)[C@H](C)C(=O)[C@H](C)[C@@H](O[C@@H]2O[C@H](C)C[C@H](N(C)C)[C@H]2O)[C@](C)(OC)C[C@@H](C)C2=NC(COCc3ccc(Cl)cc3)C(COCc3ccc(Cl)cc3)N3C(=O)O[C@@]1(C)[C@H]3[C@H]2C (stereo partly shown) [Example 148]
MIC (ESCHERICHIA COLI SS; listed as Ex 148, unit assumed): 25 µg/mL (≈ 26.4 µM)
MIC (STR[…] 508; S. agalactiae CMX 508, listed as Ex 148, unit assumed): 0.39 µg/mL (≈ 0.412 µM)
MIC (M[…] ATCC 4698): 1.56 µg/mL (≈ 1.65 µM)
MIC (EN[…] ATCC 8043): 0.78 µg/mL (≈ 0.824 µM)
MIC ([3]; S. pyogenes 930, listed as Ex 148, unit assumed): 6.2 µg/mL (≈ 6.55 µM)
MIC [4]: 3.1 µg/mL (≈ 3.27 µM)
MIC (CANDIDA ALBICANS CCH 442; C. albicans CCH 442, listed as Ex 148, unit assumed): > 100 µg/mL
MIC [8]: 12.5 µg/mL (≈ 13.2 µM)
MIC [19]: 25 µg/mL (≈ 26.4 µM)
MIC ([13]; S. pyogenes EES61, listed as Ex 148, unit assumed): 0.2 µg/mL (≈ 0.211 µM)
MIC [18]: 0.2 µg/mL (≈ 0.211 µM)
